Measurements taken from paper PMC4724238 (Biochemical and biophysical research communications, 2015).

How the values were obtained:
Experiment in all cases: reduction to DABS-Met, […] min
Type in all cases: biochemical
Details in all cases: no activator
hMsrB3 = molecular target: T1, hMsrB3 (Homo sapiens, UniProt Q8IXL7)
T1 sequence (Q8IXL7 1-192 limits assumed): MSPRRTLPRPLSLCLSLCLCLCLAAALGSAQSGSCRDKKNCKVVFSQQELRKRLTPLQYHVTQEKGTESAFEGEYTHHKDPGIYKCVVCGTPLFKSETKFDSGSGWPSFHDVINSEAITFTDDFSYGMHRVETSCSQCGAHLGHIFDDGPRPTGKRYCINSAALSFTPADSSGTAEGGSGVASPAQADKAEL

hMsrB2 = hMsrB2 (Homo sapiens, UniProt Q9Y3D2)
hMsrB2, sequence (Q9Y3D2 whole entry): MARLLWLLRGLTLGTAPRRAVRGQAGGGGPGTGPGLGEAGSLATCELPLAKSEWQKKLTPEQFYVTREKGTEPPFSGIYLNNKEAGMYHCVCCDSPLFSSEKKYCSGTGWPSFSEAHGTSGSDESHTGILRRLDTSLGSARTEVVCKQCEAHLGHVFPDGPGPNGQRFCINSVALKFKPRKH

eMsrB = molecular target: T2, eMsrB (Escherichia coli, UniProt P0A746)
T2 sequence (P0A746 2-137): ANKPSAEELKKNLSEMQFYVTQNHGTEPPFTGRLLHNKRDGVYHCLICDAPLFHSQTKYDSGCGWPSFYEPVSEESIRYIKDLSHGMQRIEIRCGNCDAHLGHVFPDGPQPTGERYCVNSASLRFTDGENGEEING

hMsrA (myristoylated) = molecular target: T3, hMsrA (myristoylated) (Homo sapiens, UniProt Q9UJ68)
T3 sequence (Q9UJ68 23-235): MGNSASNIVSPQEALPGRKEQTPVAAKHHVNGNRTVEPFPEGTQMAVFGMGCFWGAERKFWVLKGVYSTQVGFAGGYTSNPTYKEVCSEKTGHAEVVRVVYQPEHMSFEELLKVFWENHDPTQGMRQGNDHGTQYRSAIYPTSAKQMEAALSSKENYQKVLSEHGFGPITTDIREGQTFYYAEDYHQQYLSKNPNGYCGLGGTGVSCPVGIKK

eMsrA = molecular target: T4, eMsrA (Escherichia coli, UniProt P0A744)
T4 sequence (P0A744 2-212): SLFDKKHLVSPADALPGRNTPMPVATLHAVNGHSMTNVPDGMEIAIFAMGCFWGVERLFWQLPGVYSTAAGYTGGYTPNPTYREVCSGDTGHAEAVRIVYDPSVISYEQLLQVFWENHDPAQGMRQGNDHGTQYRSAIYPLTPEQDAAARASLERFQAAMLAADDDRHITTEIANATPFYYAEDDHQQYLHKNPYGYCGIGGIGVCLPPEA

bMsrA = molecular target: T5, bMsrA (Bos taurus, UniProt P54149)
T5 sequence (P54149 1-233 limits assumed): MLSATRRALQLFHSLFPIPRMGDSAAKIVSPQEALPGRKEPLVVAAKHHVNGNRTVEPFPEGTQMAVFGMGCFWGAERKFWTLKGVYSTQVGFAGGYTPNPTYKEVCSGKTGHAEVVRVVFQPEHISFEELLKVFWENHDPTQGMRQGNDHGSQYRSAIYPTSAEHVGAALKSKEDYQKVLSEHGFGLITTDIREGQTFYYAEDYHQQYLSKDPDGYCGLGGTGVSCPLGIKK

hMsrA = molecular target: T6, hMsrA (Homo sapiens, UniProt Q9UJ68)
T6 sequence (Q9UJ68 23-235): T3 sequence (Q9UJ68 23-235)

| SMILES | reduction to DABS-Met, 30 min (hMsrB3) | reduction to DABS-Met, 30 min (hMsrB2) | reduction to DABS-Met, 30 min (eMsrB) | reduction to DABS-Met, 30 min (hMsrA (myristoylated)) | reduction to DABS-Met, 30 min (eMsrA) | reduction to DABS-Met, 30 min (bMsrA) | reduction to DABS-Met, 30 min (hMsrA) |
| --- | --- | --- | --- | --- | --- | --- | --- |
| CN(C)c1ccc(N=Nc2ccc(S(=O)(=O)N[C@@H](CC[S@@+](C)[O-])C(=O)O)cc2)cc1 [DABS-Met-R-(o)] | either DABS-Met-S-(o) or DABS-Met-R-(o), to measure the activity of MsrA and MsrB, respectively | either DABS-Met-S-(o) or DABS-Met-R-(o), to measure the activity of MsrA and MsrB, respectively | either DABS-Met-S-(o) or DABS-Met-R-(o), to measure the activity of MsrA and MsrB, respectively | – | – | – | – |
| CN(C)c1ccc(N=Nc2ccc(S(=O)(=O)N[C@@H](CC[S@+](C)[O-])C(=O)O)cc2)cc1 [DABS-Met-S-(o)] | – | – | – | uses a synthetic substrate, either DABS-Met-S-(o) or DABS-Met-R-(o), to measure the activity of MsrA | uses a synthetic substrate, either DABS-Met-S-(o) or DABS-Met-R-(o), to measure the activity of MsrA | uses a synthetic substrate, either DABS-Met-S-(o) or DABS-Met-R-(o), to measure the activity of MsrA | uses a synthetic substrate, either DABS-Met-S-(o) or DABS-Met-R-(o), to measure the activity of MsrA |
